What was measured:
phospho-MKK4 = test: Western blot of GSC for phospho-MKK4; assay type: cell-based, human; conditions: GSCs; remained at similar levels for at least 26 hrs
Excerpt: A genome wide screen with shRNA libraries was used to identify pathways for S10 induced macropinocytosis. The approach was based on the idea that depleting a key factor in the pathway should render GSCs refractive to S10 induced death. Three different DECIPHER pooled lentiviral shRNA libraries consisting of 82500 shRNA covering 15377 genes grouped into Human Module 1 (genes associated with various signaling pathways), Human Module 2 (disease-associated genes) and Human Module 3 (genes associated with cell surface, extracellular and DNA binding), were used to transduce U3013MG GSCs. Four days later, 14 μM S10 was added for one day after which cells were cultured in standard medium for five month. Surviving cells were thereafter dissociated and further expanded. […] Phospho-MKK4 increased within 5 min of S10 exposure and remained at similar levels for at least 26 hrs of stimulation. […]
Whole-cell extracts were prepared in SDS-buffer (25 mM Tris-HCl, pH 7.5, 1 mM EDTA, protease inhibitor cocktail (Roche), and phosphatase inhibitors [2 mM sodium orthovanadate, 20 mM beta-glycerolphosphate], and 1% SDS). The samples were analysed by western blot as described previously (Aranda et al. (2008) Mol Cell Biol, 28, 5899-5911) with the following antibodies: anti-Histone H3 (Abcam), antitrimethyl(Lys27)-Histone H3 (Millipore) and anti-phospho(S257/Thr261)-SEK1/MKK4 (R&D Systems).

[1] = system: ex-vivo adult zebrafish hearts; test: Cardiotoxicity, ex vivo adult zebrafish hearts; conditions: frequency spectral analysis of heart beating
Protocol: A xenotransplantation model for GBM in zebrafish was developed to test the capacity of the 17 hits to prevent tumor formation in vivo. Three thousand U3013MG GSCs labeled with cell tracker red were injected intracranially into the ventricle of 48-52 hpf larvae. Each of the 17 hits were administered to the egg water at the lowest effective in vitro cytotoxic concentration identified and tumor development assessed 10 days later. This assay allowed rapid evaluation of the compounds in an in vivo setup, features such as the acute/chronic toxicity effect of the compounds on zebrafish and the transplanted cells, transplanted cell proliferation and migration of cells into brain parenchyma, compounds penetrance into the zebrafish tissue were all parallely evaluated. […] Cardiovascular toxicity was assessed using a recently established model based on frequency spectral analysis of heart beating in ex-vivo adult zebrafish hearts (Kitambi et al., (2012) BMC Physiol. 12, 3).
A zebrafish model was used to assess the developmental and cardiac toxicity of advanced hits from the screen. […] The embryos were monitored every day and allowed to grow for 5 days before the phenotype was recorded. […] Adult hearts from male zebrafish were exposed to compounds and the effect on the heart beat was recorded and analysed using developed methods (Kitambi et al., (2012) BMC Physiol. 12, 3).

U3013MG GSC xenograft = test: Mouse Kaplan-Meier experiment, oral S10 at terminal stage of GBM; assay type: in vivo, NOD-SCID mice; conditions: 20 mg/kg per orally for five days
Protocol: The bioavailability of S10 by oral and intraperitoneal injection in vivo was investigated. […] In a second delivery regimen, treatment was performed per orally (20 mg/kg) twice daily for five days. Treatment started at a terminal stage of GBM, i.e. six weeks after engraftment of U3013M GSCs and median survival from the time of treatment initiation and the Hazard ratio were scored.
For Kaplan-Meier experiments, 100,000 GSC from U3013MG we injected into NOD-SCID mice as described above. Mice were then monitored for 6 weeks and then oral administration regiment was started. Mice were either given 200 μl of water or S10 in water corresponding to 20 mg/kg, via oral gavage. A total of nine animals were taken for each treatment (control, S10). The oral administration was followed once a day for five days following which the administration was stopped and the animals monitored till they reach the humane end point, after which they were sacrificed.

[2] = system: glioma stem cell line U3013; test: In vitro cancer cell and CSC viability assay (ATP quantification, CellTiterGlo); assay type: cell-based, human; conditions: Homo sapiens; U3013, 24 hours exposure; read-out: In vitro efficacy (viability) EC50
Protocol: The ability of Examples S1-S23 to selectively induce cytotoxicity in glioma/glioblastoma cancer cells or glioma/glioblastoma cancer stem cells was determined by quantification of ATP production in glioma stem cell line U3013 in the presence of using CellTiterGlo reagent (Promega). Cells were exposed to compound in serial dilution in the range 1 nM to 50 µM for 24 hours and viability assessed with respect to negative control (dmso, no cell death) and positive control (staurosporine, full cell death). […] The EC50 of S10 remained largely similar at 2, 3 and 4 days of incubation. […] The individual isomers (S21-S23) of racemic S10 were evaluated in order to determine the enantiospecific pharmacology of the individual isomers.
Negative (100% DMSO) and positive (10 mM S10 in 100% DMSO) controls were placed in rows 1-4 and 5-8, respectively, of column 12. The wells were diluted with 190 μl of the corresponding growth media and 5 μl of each well of compound solution transferred to quadruplicate wells of a sterile 384-well black clear bottom plate (BD Falcon) containing GSC at 70% confluency in 45 μl growth media. The plate was incubated for 24 hours, after which the plate was removed from the incubator and each well imaged in bright-field using an Operetta Imaging system (PerkinElmer) at 37° C. and 5% CO2 to determine vacuole accumulation at each concentration. The plate was then allowed to cool to room temperature and each well treated with 25 μl freshly CellTiterGlo (Promega) reagent. The plate was shaken for 15 minutes and luminescence measured using a Victor3 (Perkin Elmer) microtiterplate reader. Total luminescence was normalized relative to control and curve fitting performed using GraphPad Prism (v6.02) software.

OC(c1cc(-c2ccc(Cl)cc2)nc2ccccc12)C1CCCCN1 (racemic) [Compound S10, (2-(4-chlorophenyl)quinolin-4-yl)(piperidin-2-yl)methanol]
time to increase of Phospho-MKK4 after exposure (phospho-MKK4): ≤ 5 min | cardiac toxicity, heart beating [1]: small or no effects | Hazard ratio (rate of death untreated vs S10 treated group) (U3013MG GSC xenograft; comparison of the two survival curves): 2.293 | median survival from the time of treatment initiation (U3013MG GSC xenograft; start six weeks after engraftment, n=9, DMSO treated animals 7 days): 12 days | EC50 [2]: 2360 nM
